The target in experiment [1] is Serine/threonine-protein kinase PLK1 (Homo sapiens, UniProt P53350). Briefly: Inhibition of inactivated PLK1 in human HeLa cells using casein as substrate by immunoprecipitation assay. The format is cell-based.
For experiment [2], the target named is cGMP-inhibited 3',5'-cyclic phosphodiesterase 3B (Homo sapiens, UniProt Q13370). In words: Inhibition of human recombinant PDE3B expressed in insect Sf9 cells assessed as residual cAMP level after 30 mins by HTRF assay. A general note: cAMP levels reflect the balance of adenylyl cyclase and phosphodiesterase activity.
Sequence of cGMP-inhibited 3',5'-cyclic phosphodiesterase 3B (Q13370 whole entry): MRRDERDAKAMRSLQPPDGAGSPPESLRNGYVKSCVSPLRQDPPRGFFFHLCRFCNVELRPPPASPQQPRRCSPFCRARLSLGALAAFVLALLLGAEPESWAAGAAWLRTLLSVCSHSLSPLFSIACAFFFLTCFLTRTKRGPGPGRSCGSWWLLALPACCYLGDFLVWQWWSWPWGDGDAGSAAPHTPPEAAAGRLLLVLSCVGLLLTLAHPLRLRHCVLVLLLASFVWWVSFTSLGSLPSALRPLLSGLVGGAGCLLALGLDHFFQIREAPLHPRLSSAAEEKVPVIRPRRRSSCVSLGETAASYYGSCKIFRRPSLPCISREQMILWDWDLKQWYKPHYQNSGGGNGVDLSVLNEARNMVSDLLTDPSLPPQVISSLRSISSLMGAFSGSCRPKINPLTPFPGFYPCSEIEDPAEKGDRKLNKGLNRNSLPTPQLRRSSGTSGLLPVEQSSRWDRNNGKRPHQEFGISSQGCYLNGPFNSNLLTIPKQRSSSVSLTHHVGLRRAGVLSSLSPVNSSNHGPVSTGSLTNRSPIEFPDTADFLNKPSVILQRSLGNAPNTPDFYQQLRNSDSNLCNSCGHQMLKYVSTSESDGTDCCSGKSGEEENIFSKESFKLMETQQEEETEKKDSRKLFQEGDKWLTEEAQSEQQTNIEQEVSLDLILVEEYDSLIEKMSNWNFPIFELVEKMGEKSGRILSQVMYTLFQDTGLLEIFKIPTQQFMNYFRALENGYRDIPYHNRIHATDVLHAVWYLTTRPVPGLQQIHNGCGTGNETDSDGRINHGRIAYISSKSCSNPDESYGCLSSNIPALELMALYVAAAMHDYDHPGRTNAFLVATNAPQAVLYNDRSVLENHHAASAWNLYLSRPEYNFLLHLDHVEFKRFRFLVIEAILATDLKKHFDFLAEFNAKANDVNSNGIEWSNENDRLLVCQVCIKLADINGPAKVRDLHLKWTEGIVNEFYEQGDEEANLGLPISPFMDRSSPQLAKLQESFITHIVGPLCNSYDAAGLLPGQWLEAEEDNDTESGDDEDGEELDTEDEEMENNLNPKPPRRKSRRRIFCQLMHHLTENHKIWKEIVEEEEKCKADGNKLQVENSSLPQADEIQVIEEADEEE
The next experiment has as its target T1, Estrogen receptor (Homo sapiens, UniProt P03372).
T1 sequence (P03372 whole entry): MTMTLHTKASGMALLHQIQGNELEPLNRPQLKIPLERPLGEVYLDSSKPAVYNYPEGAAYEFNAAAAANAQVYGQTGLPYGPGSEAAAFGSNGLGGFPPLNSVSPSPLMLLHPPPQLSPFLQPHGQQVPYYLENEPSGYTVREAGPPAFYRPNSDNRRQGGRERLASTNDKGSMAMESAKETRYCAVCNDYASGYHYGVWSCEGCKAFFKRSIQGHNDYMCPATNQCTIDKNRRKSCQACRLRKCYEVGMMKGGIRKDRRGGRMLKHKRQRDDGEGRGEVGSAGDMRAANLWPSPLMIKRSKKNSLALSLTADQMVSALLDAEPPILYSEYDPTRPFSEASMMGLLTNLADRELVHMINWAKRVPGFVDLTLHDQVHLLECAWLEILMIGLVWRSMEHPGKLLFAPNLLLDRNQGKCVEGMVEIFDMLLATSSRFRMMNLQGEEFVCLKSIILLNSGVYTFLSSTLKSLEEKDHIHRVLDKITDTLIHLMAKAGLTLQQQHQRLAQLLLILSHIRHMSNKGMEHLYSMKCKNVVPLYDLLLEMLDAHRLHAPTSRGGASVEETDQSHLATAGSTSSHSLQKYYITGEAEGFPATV
In words: Displacement of [3H]-17beta-estradiol from human recombinant ERalpha expressed in rabbit reticulocytes. The class given is cell-based.

The next experiment has as its target Estrogen receptor beta (Homo sapiens, UniProt Q92731). In words: Displacement of [3H]-17beta-estradiol from human recombinant ERbeta expressed in rabbit reticulocytes. The format is cell-based.
The target in the next experiment is Protease (Human immunodeficiency virus 1, UniProt Q9YQ12). Briefly: Inhibition of HIV1 protease.
Sequence of Protease (Q9YQ12 whole entry, the tested form may be a part): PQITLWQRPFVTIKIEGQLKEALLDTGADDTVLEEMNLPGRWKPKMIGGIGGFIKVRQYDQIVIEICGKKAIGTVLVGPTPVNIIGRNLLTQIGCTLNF
In the next experiment the target is Collagenase 3 (Homo sapiens, UniProt P45452). In words: Inhibition of human recombinant MMP13 (85 to 255 residues) expressed in Escherichia coli using 5-FAM/QXLTM as substrate by fluorometric assay.
The target of a further experiment is MAP kinase p38 (Homo sapiens, UniProt O15264+Q15759+Q16539+P53778). In words: Inhibition of human P38 expressed in yeast using T669 as substrate preincubated for 30 mins followed by [gamma-32P]Mg/ATP addition measured after 25 mins by beta scintillation counting method.
The target of experiment [3] is Cyclin-dependent kinase 4/cyclin D2 (Homo sapiens, UniProt P11802+P30279). In words: Inhibition of human recombinant CDK4/Cyclin D2 expressed in baculovirus infected insect Sf9 cells using G1 peptide as substrate after 45 mins by Top Count method in presence of [33P]-ATP.
Sequence of Cyclin-dependent kinase 4/cyclin D2 (P11802 whole entry): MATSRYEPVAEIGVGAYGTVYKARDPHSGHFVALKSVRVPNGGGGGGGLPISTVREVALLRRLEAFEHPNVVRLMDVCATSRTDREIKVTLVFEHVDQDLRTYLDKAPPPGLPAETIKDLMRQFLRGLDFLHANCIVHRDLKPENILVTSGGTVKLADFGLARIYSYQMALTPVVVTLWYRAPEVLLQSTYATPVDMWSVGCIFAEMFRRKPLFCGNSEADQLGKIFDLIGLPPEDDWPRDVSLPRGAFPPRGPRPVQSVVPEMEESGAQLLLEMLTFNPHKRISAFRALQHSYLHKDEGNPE
Sequence of Cyclin-dependent kinase 4/cyclin D2 (P30279 whole entry): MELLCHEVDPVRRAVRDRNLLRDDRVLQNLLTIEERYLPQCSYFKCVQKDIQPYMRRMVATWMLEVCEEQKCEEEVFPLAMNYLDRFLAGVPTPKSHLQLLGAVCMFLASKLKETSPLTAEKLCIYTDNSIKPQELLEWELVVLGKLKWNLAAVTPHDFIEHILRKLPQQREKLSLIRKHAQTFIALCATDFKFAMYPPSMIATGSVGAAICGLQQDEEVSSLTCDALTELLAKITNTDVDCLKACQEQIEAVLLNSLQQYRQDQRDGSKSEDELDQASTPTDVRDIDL
A further experiment deals with Procathepsin L (Homo sapiens, UniProt P07711). In words: Activation of human liver cathepsin L using Z-FR-AMC as substrate measured for 120 mins by fluorescence assay.
Sequence of Procathepsin L (P07711 whole entry): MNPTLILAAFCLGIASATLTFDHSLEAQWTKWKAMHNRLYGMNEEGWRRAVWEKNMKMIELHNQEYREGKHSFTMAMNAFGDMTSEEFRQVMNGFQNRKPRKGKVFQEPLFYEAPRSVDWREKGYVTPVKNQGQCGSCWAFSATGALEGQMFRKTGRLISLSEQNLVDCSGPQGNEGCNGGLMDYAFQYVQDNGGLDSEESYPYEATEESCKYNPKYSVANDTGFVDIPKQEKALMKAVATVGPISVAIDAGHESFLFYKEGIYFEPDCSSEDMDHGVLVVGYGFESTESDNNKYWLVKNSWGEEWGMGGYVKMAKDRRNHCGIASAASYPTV

A word on the IC50: it is the midpoint of a concentration-inhibition curve. The term EC50 denotes the midpoint of the concentration-response curve.

The structures appear in SMILES notation.

Sequence of Serine/threonine-protein kinase PLK1 (P53350 whole entry): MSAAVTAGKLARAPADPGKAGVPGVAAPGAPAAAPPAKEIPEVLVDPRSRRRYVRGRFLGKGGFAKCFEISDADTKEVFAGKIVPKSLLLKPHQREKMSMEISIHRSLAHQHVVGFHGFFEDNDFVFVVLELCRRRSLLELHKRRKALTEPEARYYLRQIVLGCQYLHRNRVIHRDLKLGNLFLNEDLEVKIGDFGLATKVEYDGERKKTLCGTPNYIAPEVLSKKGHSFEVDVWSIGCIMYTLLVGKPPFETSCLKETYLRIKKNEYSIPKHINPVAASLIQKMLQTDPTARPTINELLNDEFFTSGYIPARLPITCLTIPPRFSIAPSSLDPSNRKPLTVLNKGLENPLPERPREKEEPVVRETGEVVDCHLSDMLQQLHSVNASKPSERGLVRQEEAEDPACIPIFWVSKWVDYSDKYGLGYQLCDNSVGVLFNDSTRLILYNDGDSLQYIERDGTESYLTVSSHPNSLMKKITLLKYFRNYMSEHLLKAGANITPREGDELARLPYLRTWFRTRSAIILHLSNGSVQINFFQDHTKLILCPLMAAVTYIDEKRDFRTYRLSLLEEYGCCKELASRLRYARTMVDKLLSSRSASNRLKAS
Sequence of Estrogen receptor beta (Q92731 whole entry): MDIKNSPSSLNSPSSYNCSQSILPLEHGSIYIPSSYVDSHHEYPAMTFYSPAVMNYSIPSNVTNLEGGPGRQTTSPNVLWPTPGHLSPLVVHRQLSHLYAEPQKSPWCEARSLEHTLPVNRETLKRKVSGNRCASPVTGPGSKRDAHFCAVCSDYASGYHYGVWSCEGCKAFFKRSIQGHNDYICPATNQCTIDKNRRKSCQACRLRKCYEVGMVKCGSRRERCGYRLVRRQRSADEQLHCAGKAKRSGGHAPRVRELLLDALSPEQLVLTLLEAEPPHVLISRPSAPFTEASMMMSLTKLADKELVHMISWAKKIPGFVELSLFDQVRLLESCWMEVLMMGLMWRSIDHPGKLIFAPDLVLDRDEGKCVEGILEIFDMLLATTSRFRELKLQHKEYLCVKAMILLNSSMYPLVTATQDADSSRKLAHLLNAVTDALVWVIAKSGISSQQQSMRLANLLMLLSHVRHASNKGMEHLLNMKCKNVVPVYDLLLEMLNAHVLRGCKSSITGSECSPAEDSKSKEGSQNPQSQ

With `FC(F)(F)c1ccc(OC(CCNCc2ccccn2)c2ccccc2)cc1` (centres undefined), the IC50 in experiment [1] is 50 nM.

In the case of `O=C1CCC(c2ccc(NC(=O)Cc3cccnc3)cc2)=NN1`, the EC50 in [2] was found to be 6000 nM.

Turning to `CCc1ccc2c(c1)C(c1ccc(OCCN3CCOCC3)cc1)Cc1cc(O)cc(C)c1-2` (centres undefined), the IC50 on Estrogen receptor was determined as 9 nM; at Estrogen receptor beta it was 190 nM.

Compound `CC(C)(C)NC(=O)[C@@H]1C[C@@H]2CCCC[C@@H]2CN1C[C@@H](O)[C@H](Cc1ccccc1)NC(=O)OC1CCCC1` returned an IC50 against Protease of 160 nM.

Consider `O=C(O)CCCOc1cccc(CNC(=O)C#Cc2cn(Cc3ccc(C(=O)O)cc3)c(=O)[nH]c2=O)c1`, for which, on Collagenase 3, the IC50 turned out to be 6 nM.

With `Cc1ccc(-c2ncn(CC3CC3)c2-c2ccncc2)cc1`, the IC50 on MAP kinase p38 worked out at 160 nM.

Turning to `O=C(Nc1ccccn1)Nc1cccc2c1-c1ccccc1C2=O`, the 50% inhibitory concentration (IC50) in experiment [3] was found to be 100 nM.

As to `O=C(COc1ccccc1)N[C@@H](Cc1ccccc1)C(=O)O[C@H]1CCOC1`, the EC50 on Procathepsin L was 6000 nM.
